Data reported in patent publication US9193722B2, “Tri-cyclic pyrazolopyridine kinase inhibitors” (Vertex Pharmaceuticals Incorporated, priority 2008, dated 2015).
Read-outs that look alike come from different tables or passages of the source.

Experiments:
Format in all cases: biochemical
[1] = target: PKC delta kinase (Homo sapiens, UniProt Q05655); assay: PKC delta kinase inhibition, coupled-enzyme (NADH absorbance) assay, Ki; details: 150 μM ATP, 46 nM PKC delta kinase, 30° C.
Outline: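 PKC delta in 100 mM HEPES pH 7.5, 10 mM MgCl2, 25 mM NaCl, 0.1 mM EDTA, 0.01% Brij, equilibrated 10 min at 30° C with compound from DMSO stock. Started with ATP at 150 μM final; NADH-coupled absorbance at 340 nm followed 15 min at 30° C. Ki from initial rates by non-linear regression.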

[2] = target: PKC theta kinase (Homo sapiens, UniProt Q04759); assay: PKC theta kinase inhibition, coupled-enzyme (NADH absorbance) assay, Ki; details: 240 μM ATP, 18 nM PKC theta kinase, 30° C.
Sequence of PKC theta kinase (Q04759 whole entry): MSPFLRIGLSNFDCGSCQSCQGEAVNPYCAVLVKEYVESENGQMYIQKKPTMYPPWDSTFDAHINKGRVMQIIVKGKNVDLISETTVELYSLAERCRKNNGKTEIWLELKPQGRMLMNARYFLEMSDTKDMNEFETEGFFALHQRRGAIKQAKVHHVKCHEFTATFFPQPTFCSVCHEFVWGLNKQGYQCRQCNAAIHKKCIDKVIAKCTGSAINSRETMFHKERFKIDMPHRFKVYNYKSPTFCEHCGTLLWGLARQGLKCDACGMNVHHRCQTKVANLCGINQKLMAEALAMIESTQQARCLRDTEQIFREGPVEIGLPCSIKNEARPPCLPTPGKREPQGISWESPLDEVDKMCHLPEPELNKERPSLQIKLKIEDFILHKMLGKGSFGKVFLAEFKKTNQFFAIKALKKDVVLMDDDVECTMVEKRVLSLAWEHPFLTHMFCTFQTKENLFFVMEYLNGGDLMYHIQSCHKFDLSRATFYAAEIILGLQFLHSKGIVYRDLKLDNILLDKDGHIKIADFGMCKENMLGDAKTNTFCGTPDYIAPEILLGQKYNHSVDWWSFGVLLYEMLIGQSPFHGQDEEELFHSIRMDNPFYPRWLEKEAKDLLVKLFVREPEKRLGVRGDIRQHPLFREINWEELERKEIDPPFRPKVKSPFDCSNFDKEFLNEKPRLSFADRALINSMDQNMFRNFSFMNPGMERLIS
Outline: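 Coupled-enzyme kinase assay following NADH absorbance at 340 nm, in 100 mM HEPES pH 7.5, 10 mM MgCl2, 25 mM NaCl, 0.1 mM EDTA, 0.01% Brij. Compound in DMSO preincubated with enzyme 10 min at 30 °C. Ki from initial rates by non-linear regression.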

[3] = target: PKC alpha kinase (Homo sapiens, UniProt P17252); assay: PKC alpha kinase inhibition, coupled-enzyme (NADH absorbance) assay, Ki; details: 130 μM ATP, 4.5 nM PKC alpha kinase, 30° C.
Outline: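 Enzyme in 100 mM HEPES pH 7.5, 10 mM MgCl2, 100 μM CaCl2, 0.01% Brij, preincubated with compound 10 min at 30 °C. Reaction started with 130 μM ATP (final); NADH consumption followed at 340 nm for 15 min at 30 °C. Ki fitted by non-linear regression of initial rates.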

Sequence of PKC delta kinase (Q05655 whole entry): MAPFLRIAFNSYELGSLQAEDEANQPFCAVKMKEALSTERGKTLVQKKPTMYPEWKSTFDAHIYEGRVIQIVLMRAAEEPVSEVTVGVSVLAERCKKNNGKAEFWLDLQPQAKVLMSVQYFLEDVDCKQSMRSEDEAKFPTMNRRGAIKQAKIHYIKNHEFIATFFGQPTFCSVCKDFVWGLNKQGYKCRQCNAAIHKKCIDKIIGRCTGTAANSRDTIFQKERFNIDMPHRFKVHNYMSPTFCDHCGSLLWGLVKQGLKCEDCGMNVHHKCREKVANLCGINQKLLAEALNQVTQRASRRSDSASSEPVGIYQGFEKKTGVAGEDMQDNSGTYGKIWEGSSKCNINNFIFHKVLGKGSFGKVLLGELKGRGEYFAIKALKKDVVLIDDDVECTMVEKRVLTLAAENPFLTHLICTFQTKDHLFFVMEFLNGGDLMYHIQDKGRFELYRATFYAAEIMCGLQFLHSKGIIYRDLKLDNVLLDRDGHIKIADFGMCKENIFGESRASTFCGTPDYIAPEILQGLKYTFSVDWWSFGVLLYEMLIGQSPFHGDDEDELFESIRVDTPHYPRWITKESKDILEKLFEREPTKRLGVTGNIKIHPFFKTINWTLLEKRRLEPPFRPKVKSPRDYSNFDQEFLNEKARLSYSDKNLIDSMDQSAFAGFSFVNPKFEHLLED

| SMILES | Ki ([1]; read-out: Ki PKC delta) [µM] | Ki [2] [µM] | Ki [3] [µM] | Ki ([1]; Ki PKC delta) [µM] |
| --- | --- | --- | --- | --- |
| COC(C)(C)CC1CN(c2cccc(-c3n[nH]c4ncccc34)n2)CCN1 (stereo not drawn) [Compound 101] | > 1.25 | < 0.05 | > 1.25 |  |
| FC(F)(F)c1ccc(N2CCNC(c3cccc(Cl)c3)C2)nc1-c1n[nH]c2ncccc12 (stereo not drawn) [Compound 170] | < 2.8 | < 0.05 | < 0.5 |  |
| CC(C)CC1CN(c2ccc(F)c(-c3n[nH]c4ncccc34)n2)CCC1CN (stereo not drawn) [Compound 386] | < 0.5 | < 0.05 | < 2.8 |  |
| OC1(C2CN(c3ccc(C(F)(F)F)c(-c4n[nH]c5ncccc45)n3)CCN2)COC1 (stereo not drawn) [Compound 233] | > 1.25 | > 0.7 | > 1.25 |  |
| NC1CCCN(c2ccc(C(F)(F)F)c(-c3n[nH]c4ncccc34)n2)C1 (stereo not drawn) [Compound 122] | > 1.25 | > 0.7 | > 1.25 |  |
| Fc1ccc(N2CCNCC2)nc1-c1n[nH]c2ncccc12 [Compound 88] |  | < 0.5 | > 1.25 | < 2.8 |
| CCC(CC)C(N)C1CCCN(c2ccc(F)c(-c3n[nH]c4ncccc34)n2)C1 (stereo not drawn) [Compound 391] | < 2.8 | < 0.05 | > 1.25 |  |
| CC(C)(C)CC(N)C1CCCN(c2ccc(F)c(-c3n[nH]c4ncccc34)n2)C1 (stereo not drawn) [Compound 317] | > 1.25 | < 0.05 | > 1.25 |  |
| c1cnc2[nH]nc(-c3nccc(N4CCNCC4)n3)c2c1 [Compound 81, 3-(4-(piperazin-1-yl)pyrimidin-2-yl)-1H-pyrazolo[3,4-b]pyridine] | > 2 | > 0.7 | > 1.25 |  |
| CC(C)CC1(CO)CN(c2ccc(F)c(-c3n[nH]c4ncccc34)n2)CCC1N (stereo not drawn) [Compound 293] | < 0.05 | < 0.05 | < 0.5 |  |
| C[C@](O)(c1ccccc1)[C@@H]1CN(c2ccc(F)c(-c3n[nH]c4ncccc34)n2)CCN1 [Compound 274] | > 1.25 | < 0.5 | > 1.25 |  |
| CC(C)CC1(C)C=CCN(c2ccc(C(F)(F)F)c(-c3n[nH]c4ncccc34)n2)C1 (stereo not drawn) [Compound 396] | > 1.25 | > 0.7 | > 1.25 |  |
| NC1CCN(c2ccc(C(F)(F)F)c(-c3n[nH]c4ncccc34)n2)CC12CCCCC2 (stereo not drawn) [Compound 461] | < 0.5 | < 0.05 | > 1.25 |  |
| CC(C)C(C)(O)C1CN(c2nc(-c3n[nH]c4ncccc34)ccc2F)CCN1 (stereo not drawn) [Compound 376] | < 0.5 | < 0.05 | > 1.25 |  |
| CC(C)(F)CC1CN(c2ccc(F)c(-c3n[nH]c4ncccc34)n2)CCN1 (stereo not drawn) [Compound 151] | < 0.5 | < 0.05 | > 1.25 |  |
| C=C(F)c1ccc(N2CCN[C@@H](CC(C)C)C2)nc1-c1n[nH]c2ncccc12 [Compound 6] | < 0.5 | < 0.05 | < 0.5 |  |
| CC(C)C[C@H]1CN(c2ccc(C(F)(F)F)c(-c3n[nH]c4ncccc34)n2)CC(F)(F)CN1 [Compound 222] | > 1.25 | > 0.7 | > 1.25 |  |
| C=C(F)c1cc(-c2n[nH]c3ncccc23)nc(N2CCN[C@@H](CC(C)C)C2)c1 [Compound 55] | < 2.8 | < 0.05 | > 1.25 |  |
| CC(C)CC1(O)CCCN(c2ccc(F)c(-c3n[nH]c4ncccc34)n2)C1 (stereo not drawn) [Compound 295] | > 1.25 | < 2.8 | > 1.25 |  |
| C=Cc1ccc(N2CCN[C@@H](CC(C)C)C2)nc1-c1n[nH]c2ncccc12 [Compound 51] | > 2 | > 0.7 | > 1.25 |  |
| CC(C)C(C)(O)C1CN(c2ccc(Cl)c(-c3n[nH]c4ncccc34)n2)CCN1 (stereo not drawn) [Compound 437] | < 2.8 | < 0.05 | > 1.25 |  |
| CC(C)CC1(C(N)=O)CN(c2ccc(C(F)(F)F)c(-c3n[nH]c4ncccc34)n2)C1 [Compound 430] | > 1.25 | > 0.7 | > 1.25 |  |
| CC(C)C[C@@H]1C[C@@H](N)CN(c2ccc(C(F)(F)F)c(-c3n[nH]c4ncccc34)n2)C1 [Compound 365] | > 1.25 | < 0.5 | > 1.25 |  |
| N#CC1CCN(c2ccc(F)c(-c3n[nH]c4ncccc34)n2)CC1 [Compound 275] | > 1.25 | > 0.7 | > 1.25 |  |
| OCC1CCN(c2ccc(C(F)(F)F)c(-c3n[nH]c4ncccc34)n2)CC1 [Compound 321] | > 1.25 | > 0.7 | > 1.25 |  |
| CCCC1(CN)CN(c2ccc(C(F)(F)F)c(-c3n[nH]c4ncccc34)n2)CCO1 (stereo not drawn) [Compound 404] | < 0.5 | < 0.5 | < 2.8 |  |

| SMILES | Ki ([1]; read-out: Ki PKC delta) [µM] | Ki [2] [µM] | Ki [3] [µM] | Ki ([1]; Ki PKC delta) [µM] |
| --- | --- | --- | --- | --- |
| CC(C)[C@@](C)(O)[C@@H]1CN(c2nc(-c3n[nH]c4ncccc34)c(F)cc2F)CCN1 [Compound 445] | < 0.05 | < 0.001 | < 0.5 |  |
| Clc1ccc(N2CCNCC2)nc1-c1n[nH]c2ncccc12 [Compound 48] | < 2.8 | < 0.5 | < 2.8 |  |
| CCC[C@H]1CN(c2cccc(-c3n[nH]c4ncccc34)n2)CC(F)(F)CN1 [Compound 227] | > 1.25 | < 0.5 | > 1.25 |  |
| CC(C)C(C)(O)C1CN(c2cncc(-c3n[nH]c4ncccc34)n2)CCN1 (stereo not drawn) [Compound 426] | < 0.5 | < 0.05 | < 2.8 |  |
| FC(F)(F)c1ccc(N2CCNCC2)nc1-c1n[nH]c2ncccc12 [Compound 8] | < 2.8 | < 0.5 | > 1.25 |  |
| CC(C)C(C)(O)C1CN(c2cc(CO)cc(-c3n[nH]c4ncccc34)n2)CCN1 (stereo not drawn) [Compound 454] | < 0.5 | < 0.05 | < 2.8 |  |
| CC1CN(c2cccc(-c3n[nH]c4ncccc34)n2)C(C)CN1 (stereo not drawn) [Compound 23] | > 2 | > 0.7 | > 1.25 |  |
| CCC(C)(O)C1CN(c2ccc(F)c(-c3n[nH]c4ncccc34)n2)CCN1 (stereo not drawn) [Compound 244] | > 1.25 | < 0.5 | > 1.25 |  |
| CNC1CCN(c2ccc(C(F)(F)F)c(-c3n[nH]c4ncccc34)n2)CC1 [Compound 359] | > 1.25 | > 0.7 | > 1.25 |  |
| OC1(c2cccc(-c3n[nH]c4ncccc34)n2)CCNCC1 [Compound 60, 4-(6-(1H-pyrazolo[3,4-b]pyridin-3-yl)pyridin-2-yl)piperidin-4-ol] | < 0.5 | > 0.7 | > 1.25 |  |
| CC(C)C(F)(F)C1CN(c2ccc(F)c(-c3n[nH]c4ncccc34)n2)CCN1 (stereo not drawn) [Compound 167] | > 1.25 | < 0.5 | > 1.25 |  |
| CC(C)CC1(C)CN(c2ccc(C(F)(F)F)c(-c3n[nH]c4ncccc34)n2)CCN1 (stereo not drawn) [Compound 82] | < 0.5 | < 0.05 | < 0.5 |  |
| NC1CCN(c2ccc(F)c(-c3n[nH]c4ncccc34)n2)CC1 [Compound 368] | > 1.25 | < 0.5 | > 1.25 |  |
| OC1(C2CN(c3cccc(-c4n[nH]c5ncccc45)n3)CCN2)COC1 (stereo not drawn) [Compound 232] | > 1.25 | > 0.7 | > 1.25 |  |
| NC(=O)C1(N)CCN(c2ccc(C(F)(F)F)c(-c3n[nH]c4ncccc34)n2)CC1 [Compound 398] | > 1.25 | > 0.7 | > 1.25 |  |
| CC(C)C1(C)OC(=O)N2CCN(c3ccc(F)c(-c4n[nH]c5ncccc45)n3)CC21 (stereo not drawn) [Compound 439] | > 1.25 | < 0.5 | > 1.25 |  |
| CC(C)CC1CCCN(c2ccc(F)c(-c3n[nH]c4ncccc34)n2)C1 (stereo not drawn) [Compound 334] | > 1.25 | > 0.7 | > 1.25 |  |
| NC1CCN(c2cccc(-c3n[nH]c4ncccc34)n2)CC1 [Compound 61] | < 2.8 | < 0.5 | > 1.25 |  |
| OC1(C2CN(c3ccc(F)c(-c4n[nH]c5ncccc45)n3)CCN2)COC1 (stereo not drawn) [Compound 230] | > 1.25 | < 0.05 | > 1.25 |  |
| CC(C)(C)C[C@H]1CN(c2ccc(C(F)(F)F)c(-c3n[nH]c4ncccc34)n2)CCN1 [Compound 140] | > 1.25 | < 0.05 | > 1.25 |  |
| CC(C)CC1(CN)CCCN(c2ccc(C(F)(F)F)c(-c3n[nH]c4ncccc34)n2)C1 (stereo not drawn) [Compound 352] | < 2.8 | < 0.5 | > 1.25 |  |
| CC(C)C[C@H]1CN(c2cc(C#N)cc(-c3n[nH]c4ncccc34)n2)CCN1 [Compound 442] | < 0.5 | < 0.5 | > 1.25 |  |
| CNC(C1CCCN(c2ccc(F)c(-c3n[nH]c4ncccc34)n2)C1)C(C)(C)C (stereo not drawn) [Compound 408] | > 1.25 | < 0.5 | > 1.25 |  |
| CC(C)C[C@H]1CN(c2cccc(-c3n[nH]c4ncccc34)n2)CC[C@H]1N [Compound 118] | < 0.5 | < 0.05 | < 2.8 |  |
| CC1(C)CN(c2ccc(C(F)(F)F)c(-c3n[nH]c4ncccc34)n2)CCN1 [Compound 80] | < 0.5 | < 0.5 | > 1.25 |  |
| CC(=O)N1CCN(c2cccc(-c3n[nH]c4ncccc34)n2)CC1 [Compound 20] | > 2 | > 0.7 | > 1.25 |  |
